This experiment concerns the target T1, STAT6 (Homo sapiens, UniProt P42226).
T1 construct: These cells express endogenous STAT6; host or cells: HeLa LgBiT clone 4.14 (CRISPR knock-in of HiBiT into the endogenous STAT6 gene)
T1 sequence (P42226 1-847): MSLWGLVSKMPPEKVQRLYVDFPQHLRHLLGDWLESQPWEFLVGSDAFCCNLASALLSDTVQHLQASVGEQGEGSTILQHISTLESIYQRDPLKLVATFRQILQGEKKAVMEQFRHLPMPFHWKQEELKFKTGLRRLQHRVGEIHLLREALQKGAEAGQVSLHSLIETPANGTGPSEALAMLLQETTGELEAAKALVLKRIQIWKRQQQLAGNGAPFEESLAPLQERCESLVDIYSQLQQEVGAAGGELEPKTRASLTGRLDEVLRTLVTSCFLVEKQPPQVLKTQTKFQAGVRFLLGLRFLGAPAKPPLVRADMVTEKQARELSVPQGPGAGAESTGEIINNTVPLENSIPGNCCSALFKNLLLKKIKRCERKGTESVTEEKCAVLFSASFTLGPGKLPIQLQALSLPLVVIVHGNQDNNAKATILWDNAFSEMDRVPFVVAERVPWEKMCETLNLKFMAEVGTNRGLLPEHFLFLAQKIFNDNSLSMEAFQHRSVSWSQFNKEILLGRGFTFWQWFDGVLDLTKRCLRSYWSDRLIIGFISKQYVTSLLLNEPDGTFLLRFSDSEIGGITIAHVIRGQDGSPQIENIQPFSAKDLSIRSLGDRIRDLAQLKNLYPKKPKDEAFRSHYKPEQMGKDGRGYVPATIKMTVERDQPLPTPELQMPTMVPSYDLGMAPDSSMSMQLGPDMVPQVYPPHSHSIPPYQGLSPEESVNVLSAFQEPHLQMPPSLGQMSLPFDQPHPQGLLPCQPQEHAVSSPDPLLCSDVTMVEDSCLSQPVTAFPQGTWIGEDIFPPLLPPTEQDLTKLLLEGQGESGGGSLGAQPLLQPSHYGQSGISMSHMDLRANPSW
Put plainly: STAT6 Degrader Assay (HiBiT based, HeLa LgBiT clone 4.14 cells). The settings on record: for DC50: geometric mean across assay runs and compound batches, DC50 provided for test compounds with >80% Emax, read-out: STAT6 degradation DC50; for Emax: HeLa, maximal STAT6 degradation. The experiment is classed as cell-based. On the procedure:
This was a HiBit based assay. A HeLa cell line stably transfected with a small protein, LgBit (Large Bit) was obtained from Promega. These cells express endogenous STAT6. A small 11 amino acid gene sequence (HiBiT) was inserted in the STAT6 gene using CRISPR technology. Once STAT6 protein is expressed in the cells, the HiBiT sequence will bind the LgBit in the cells resulting in a functional NanoBiT protein, giving a luminescent tag to STAT6. Single cell clones were prepared and the clone 4.14 was selected for the assay based on that clone showing high luminescence, high STAT6 phosphorylation upon stimulation with IL-4, and inhibition of luminescence when cells were treated with STAT6 siRNA. HeLa LgBiT clone 4.14 cells were suspended in DMEM with 10% FCS, 1% Pen/Strep, Na-pyrovate and Hygromycin B, at a concentration of 1.25*105 cells pr mL. 5000 cells were added pr well of a 384 well plate and 20 nL of compound was added by Echo® liquid handler. NN6394A (terfenadine, a toxic compound) was added to control wells at 50 μM concentration to establish the assay window. In these wells the cells are dead which equals 100% degradation of STAT6. After 4-24 h of incubation at 37° C. under 5% CO2/95% air, 5 μL substrate (Nano-GLO®) was added to the wells and the plates were centrifuged and incubated for 0.5 h. The luminescence in the wells as a measure of non-degraded STAT6 was measured in a plate reader (BMG Pherastar FSX). The measured DC50 (in nM) was determined.
In general terms: The HiBiT peptide binds its large partner to form an active luciferase.

This note sets out measurements from patent US20250320205A1, “STAT6 DEGRADERS” (Gilead Sciences, Inc., priority 2024, published 2025).

Broadly, the DC50 is the concentration giving 50% degradation. The Emax is the maximal effect, on the per cent scale that the assay sets.

In the case of `CNc1ccn(-c2ccnc3c2cc([C@H](C)N2CC=C(c4c(C)cc(C(=O)N5CCC(CN6CCN(c7ncc(N[C@H]8CCC(=O)NC8=O)cc7F)C[C@@H]6C)CC5)cc4F)CC2)n3C)c(=O)c1` (single isomer, unassigned) [Example 2g95], the half-maximal degradation concentration (DC50) was 11 nM. In the case of `CNc1cc(=O)n(-c2ccnc3c2cc([C@H](C)N2CC=C(c4c(C)cc(C(=O)N5CCC(CN6CCN(c7ccc(N[C@@H]8CCC(=O)NC8=O)cc7F)C[C@H]6C)CC5)cc4F)CC2)n3C)cc1F` (single isomer, unassigned) [Example 2g28], the DC50 is 10.3 nM. Same read-out and setting: the same measure for `Cc1cc(C(=O)N2CCC(CN3CCN(c4ccc(N[C@H]5CCC(=O)NC5=O)cc4F)CC3)CC2)cc(F)c1C1=CCN([C@@H](C)c2cc3c(-n4ccc5c(c4=O)CCN5)ccnc3n2C)CC1` (single isomer, unassigned) [Example 2g19]: 4.5 nM; for `CNc1ccn(-c2ccnc3c2cc([C@H](C)N2CC=C(c4c(C)cc(C(=O)N5CCC(CN6CCN(c7ccc(N[C@@H]8CCC(=O)NC8=O)cc7F)C[C@H]6C)CC5)cc4F)CC2)n3C)c(=O)c1` (single isomer, unassigned) [Example 2g47]: 3.3 nM.

With `COc1cc(C2CCN(Cc3cc4n(n3)CCN(C(=O)c3ccc(C5CCN([C@@H](C)c6cc7c(-n8ccc9c(c8=O)CCN9)ccnc7n6C)CC5)cc3)C4)CC2)ccc1NC1CCC(=O)NC1=O` (stereo partly drawn) [Example 2g30, 3-((2-methoxy-4-(1-((5-(4-(1-((S)-1-(1-methyl-4-(4-oxo-1,2,3,4-tetrahydro-5H-pyrrolo [3,2-c]pyridin-5-yl)-1H-pyrrolo[2,3-b]pyridin-2-yl)-ethyl)piperidin-4-yl)benzoyl)-4,5,6,7-tetrahydropyrazolo [1,5-a]pyrazin-2-yl)methyl)-piperidin-4-yl)phenyl)amino)-piperidine-2,6-dione], the DC50 was determined as 2.6 nM. The same measure, in the same setting: the same measure for `CNc1ccn(-c2ccnc3c2cc([C@H](C)N2CC=C(c4c(C)cc(C(=O)N5CCC(CN6CCN(c7ccc(N[C@@H]8CCC(=O)NC8=O)cc7F)CC6)CC5)cc4F)CC2)n3C)c(=O)c1` (single isomer, unassigned) [Example 2g38]: 2.4 nM.

In the case of `C[C@@H](c1cc2c(-n3cc(F)c4c(c3=O)CCN4)ccnc2n1C)N1CC=C(c2c(F)cc(C(=O)N3CCC(CN4CCN(c5ccc(NC6CCC(=O)NC6=O)cc5F)CC4)CC3)cc2F)CC1` (stereo partly drawn) [Example 2g131, 3-((4-(4-((1-(3,5-difluoro-4-(1-((S)-1-(4-(7-fluoro-4-oxo-1,2,3,4-tetrahydro-5H-pyrrolo [3,2-c]pyridin-5-yl)-1-methyl-1H-pyrrolo[2,3-b]pyridin-2-yl)ethyl)-1,2,3,6-tetrahydro-pyridin-4-yl)benzoyl)piper-idin-4-yl)methyl)piperazin-1-yl)-3-fluorophenyl)amino)-piperidine-2,6-dione], the Emax lay in the range of 50 to 60%. Same read-out and setting: for `Cc1cc(C(=O)N(C)c2ccc(C3CCN(c4ccc(NC5CCC(=O)NC5=O)cc4F)CC3)cc2)cc(F)c1C1=CCN([C@H](C)c2cc3c(-n4ccc5[nH]ncc5c4=O)ccnc3n2C)CC1` (stereo partly drawn) [Example 2g133, N-(4-(1-(4-((2,6-dioxopiperi-din-3-yl)amino)-2-fluoro-phenyl)piperidin-4-yl)phen-yl)-3-fluoro-N,5-dimethyl-4-(1-((R)-1-(1-methyl-4-(4-oxo-1,4-dihydro-5H-pyrazolo[4,3-c]pyridin-5-yl)-1H-pyrrolo [2,3-b]pyridin-2-yl)ethyl)-1,2,3,6-tetrahydropyridin-4-yl)benzamide] the value was 60 to 70%. As for `CNc1cc(=O)n(-c2ccnc3c2cc([C@H](C)N2CC=C(c4c(C)cc(C(=O)N5CCC(CN6CCN(c7ccc(N[C@@H]8CCC(=O)NC8=O)cc7F)CC6)CC5)cc4F)CC2)n3C)cc1F` (single isomer, unassigned) [Example 2g93], the DC50 stood at 7.2 nM. In turn, `COc1cc(N2CCN(CC3CCN(C(=O)c4cc(C)c(C5=CCN([C@@H](C)c6cc7c(-n8cc(F)c9c(c8=O)CCN9)ccnc7n6C)CC5)c(F)c4)CC3)CC2)ccc1NC1CCC(=O)NC1=O` (stereo partly drawn) [Example 2g130, 3-((4-(4-((1-(3-fluoro-4-(1-((S)-1-(4-(7-fluoro-4-oxo-1,2,3,4-tetrahydro-5H-pyr-rolo-[3,2-c]pyridin-5-yl)-1-methyl-1H-pyrrolo[2,3-b]pyridin-2-yl)ethyl)-1,2,3,6-tetrahydropyridin-4-yl)-5-methylbenzoyl)piperidin-4-yl)methyl)piperazin-1-yl)-2-methoxyphenyl)amino)piper-idine-2,6-dione] had a maximal response (Emax) of 30 to 40%. In turn, `CNc1ccn(-c2ccnc3c2cc(CN2CC=C(c4c(C)cc(C(=O)N5CCC(CN6CCN(c7ccc(N[C@H]8CCC(=O)NC8=O)cc7F)CC6)CC5)cc4F)CC2)n3C)c(=O)c1` (single isomer, unassigned) [Example 2g55] returned an Emax of 70 to 80%. Turning to `CNc1ccn(-c2ccnc3c2cc([C@H](C)N2CC=C(c4c(F)cc(C(=O)N5CCC(CN6CCN(c7ccc(N[C@H]8CCC(=O)NC8=O)cc7F)CC6)CC5)cc4F)CC2)n3C)c(=O)c1` (single isomer, unassigned) [Example 2g106], the DC50 was determined as 7.66 nM. On the same count and under the same terms, for `CNc1ccn(-c2ccnc3c2cc([C@H](C)N2CC=C(c4c(C)cc(C(=O)N5CCC(CN6CCN(c7ccc(N[C@H]8CCC(=O)NC8=O)cc7F)CC6)CC5)cc4F)CC2)n3C)c(=O)c1` (single isomer, unassigned) [Example 2g39] the value was 5 nM. The same measure, in the same setting: the same measure for `Cc1cc(C(=O)N2CCC(CN3CCN(c4ccc(N[C@@H]5CCC(=O)NC5=O)cc4F)CC3)CC2)cc(F)c1C1=CCN([C@@H](C)c2cc3c(-n4ccc5c(c4=O)CCN5)ccnc3n2C)CC1` (single isomer, unassigned) [Example 2g20]: 6.9 nM; for `Cc1cc(C(=O)N2CCC(CN3CCN(c4ccc(N[C@H]5CCC(=O)NC5=O)cc4F)C[C@H]3C)CC2)cc(F)c1C1=CCN([C@@H](C)c2cc3c(-n4ccc5c(c4=O)CCN5)ccnc3n2C)CC1` (single isomer, unassigned) [Example 2g23]: 3.3 nM. Regarding `CNc1ccn(-c2ccnc3c2cc(CN2CCC(c4c(C)cc(C(=O)N5CCC(CN6CCN(c7ccc(NC8CCC(=O)NC8=O)cc7F)CC6)CC5)cc4F)CC2)n3C)c(=O)c1` (stereo not drawn) [Example 2g60, 3-((3-fluoro-4-(4-((1-(3-fluoro-5-methyl-4-(1-((1-methyl-4-(4-(methylamino)-2-oxopyridin-1(2H)-yl)-1H-pyrrolo[2,3-b]pyridin-2-yl)-methyl)piperidin-4-yl)benzo-yl)piperidin-4-yl)methyl)-piperazin-1-yl)phenyl)amino)-piperidine-2,6-dione], the Emax was below 20%. As to `CNc1ccn(-c2ccnc3c2cc([C@H](C)N2CC=C(c4c(C)cc(C(=O)N5CCn6nc(CN7CCC(c8ccc(N[C@@H]9CCC(=O)NC9=O)cc8F)CC7)cc6C5)cc4F)CC2)n3C)c(=O)c1` (single isomer, unassigned) [Example 2g17], the 50% degradation concentration (DC50) worked out at 0.2 nM. The same measure, in the same setting: for `CNc1ccn(-c2ccnc3c2cc([C@H](C)N2CC=C(c4c(C)cc(C(=O)N5CCC(CN6CCN(c7ccc(NC8CCC(=O)NC8=O)cc7F)CC6)CC5)cc4F)CC2)n3C)c(=O)c1` (stereo partly drawn) [Example 2g37, 3-((3-fluoro-4-(4-((1-(3-fluoro-5-methyl-4-(1-((S)-1-(1-methyl-4-(4-(methyl-amino)-2-oxopyridin-1(2H)-yl)-1H-pyrrolo[2,3-b]pyridin-2-yl)ethyl)-1,2,3,6-tetrahydro-pyridin-4-yl)benzoyl)piperi-din-4-yl)methyl)piperazin-1-yl)phenyl)amino)piperidine-2,6-dione] the value was 1.8 nM.
